From patent US11478451B1, “Macrocyclic chlorine substituted indole derivatives” (Bayer Aktiengesellschaft, priority 2017, dated 2022)
Where two headings read alike, the source gives them in different places.

Experiments:
[1] = THF
SUDHL5 cells [2] = assay: Induction of caspase-3/7 activity (Caspase-Glo 3/7), SUDHL5; type: cell-based; conditions: EC50, median, SUDHL5, 3 h treatment
Method in brief: (§1)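 Apoptosis induction was gauged via caspase-3/7 activity (Caspase-Glo 3/7) following a 3 h compound incubation at 37 °C. Background from medium-only wells was removed from each value.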

SUDHL10 cells [3] = assay: Induction of caspase-3/7 activity (Caspase-Glo 3/7), SUDHL10; type: cell-based; conditions: EC50, median, SUDHL10, 3 h treatment
Method in brief: as §1

SUDHL5 cells [4] = assay: Antiproliferation assay (CellTiter-Glo, 72 h), SUDHL5; type: cell-based; conditions: IC50, median, SUDHL5, 72 h, read-out: Antiproli SUDHL5 [M] (median)
Method in brief: (§2)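 Proliferation is determined by CellTiter-Glo luminescence following 72 h incubation with compound at 37 °C, relative to a time-zero plate measured at plating.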

AMO-1 cells = assay: Antiproliferation assay (CellTiter-Glo, 72 h), AMO-1; type: cell-based; conditions: IC50, median, AMO-1, 72 h, read-out: Antiproli AMO-1 [M] median
Method in brief: as §2

HMC-1-8 cells = assay: Antiproliferation assay (CellTiter-Glo, 72 h), HMC-1-8; type: cell-based; conditions: 72 h, IC50, median; HMC-1-8, 72 h; read-out: Antiproli HMC-1-8 [M] median
Method in brief: as §2

SUDHL5 cells [5] = assay: Induction of cytotoxicity (CellTiter-Glo, 5 h), SUDHL5; conditions: SUDHL5, 5 h
SUDHL10 cells [6] = assay: Induction of cytotoxicity (CellTiter-Glo, 5 h), SUDHL10; conditions: SUDHL10, 5 h
Experimental: Therefore, cytotoxicity assays were run in parallel in SUDHL5 and SUDHL10 cells.
The different cell lines were plated in culture medium (RPMI 1640 [GIBCO #22400-089] supplemented with 10% Fetal Bovine Serum) at a density of 3,300 cells in 30 μL/well in a sterile, solid black, flat bottom, polystyrene, TC-treated 384-well microplate (Corning #3571) using Multidrop Combi Reagent Dispenser. As a control, medium without cells was also added to the plate. Cells were incubated in a humidified incubator at 37° C. overnight. […] Rim wells were excluded. The cells were incubated for 5 h hours in a humidified incubator at 37° C. After this incubation, 30 μL of CellTiter-Glo® Luminescent Cell Viability reagent (Promega, G7573) was added to each well using the Multidrop Combi Reagent Dispenser, followed by 15 min incubation on a shaker at room temperature. Finally, luminescence was read at 0.1 ms, with a gain of 3000 using the PHERAstar FS microplate reader (BMG Labtech).

[7] = Homo sapiens, SU-DHL-5, 5 h, read-out: Cytotox SUDHL5 [M] (median), IC50, median
[8] = Homo sapiens, SU-DHL10, 5 h, read-out: Cytotox SUDHL10 [M] (median), IC50, median

Row | SMILES | EC50 (SUDHL5 cells [2]; Homo sapiens, SU-DHL-5, 3 h) [nM] | EC50 (SUDHL10 cells [3]; Homo sapiens, SU-DHL10, 3 h) [nM] | IC50 (SUDHL5 cells [4]; Homo sapiens, SU-DHL-5, 72 h) [M] | IC50 (AMO-1 cells; Homo sapiens, AMO1, 72 h) [M] | IC50 (HMC-1-8 cells) [M] | IC50 (SUDHL5 cells [5]; [7]) [M] | IC50 (SUDHL10 cells [6]; [8]) [M] | further results
1 | CCOC(=O)c1c(CCCOc2cccc3ccccc23)c2ccc(Cl)c3c2n1CCC1(CC1)COCc1nn(C)c(CC)c1-3 | – | – | – | – | – | – | – | ring closure, yield of all isomers ([1]; from CCOC(=O)c1[nH]c2c(-c3c(COCC4(CCO)CC4)nn(C)c3CC)c(Cl)ccc2c1CCCOc1cccc2ccccc12, amine bond, triphenylphosphine / diisopropyl azodicarboxylate, 98.3 mM): 87.9%
2 | CCOC(=O)c1c(CCCOc2cccc3cc(F)ccc23)c2ccc(Cl)c3c2n1C[C@@H]1C[C@@H]1COCc1nn(C)c(CC)c1-3 (single isomer, unassigned) | – | – | – | – | – | – | – | ring closure, yield of all isomers ([1]; from CCOC(=O)c1[nH]c2c(-c3c(COC[C@H]4C[C@H]4CO)nn(C)c3CC)c(Cl)ccc2c1CCCOc1cccc2cc(F)ccc12, amine bond, PPh3/di-tert-butyl azodicarboxylate (Mitsunobu), 24.7 mM): 84.6%
3 | CCOC(=O)c1c(CCCOc2cccc3cc(F)ccc23)c2ccc(Cl)c3c2n1CCC1(CC1)COCc1nn(C)c(CC)c1-3 | – | – | – | – | – | – | – | ring closure, yield of all isomers ([1]; from CCOC(=O)c1[nH]c2c(-c3c(COCC4(CCO)CC4)nn(C)c3CC)c(Cl)ccc2c1CCCOc1cccc2cc(F)ccc12, amine bond, PPh3/di-tert-butyl azodicarboxylate (Mitsunobu), 83.2 mM): 86.6%
4 | CCOC(=O)c1c(CCCOc2cccc3cc(F)ccc23)c2ccc(Cl)c3c2n1CC(F)(F)CCOCc1nn(C)c(C)c1-3 | – | – | – | – | – | – | – | ring closure, yield of all isomers ([1]; from CCOC(=O)c1[nH]c2c(-c3c(COCCC(F)(F)CO)nn(C)c3C)c(Cl)ccc2c1CCCOc1cccc2cc(F)ccc12, amine bond, triphenylphosphine / di-tert-butyl azodicarboxylate, 32.0 h): 46.9%
5 | Cc1c2c(nn1CCCN1CCN(C)CC1)COCCCCn1c(C(=O)O)c(CCCOc3cccc4ccccc34)c3ccc(Cl)c-2c31 (racemic) [Example 48, (rac)-4-chloro-3-methyl-2-[3-(4-methylpiperazin-1-yl)propyl]-7-{3-[(naphthalen-1-yl)oxy]propyl}-2,10,11,12,13,15-hexahydropyrazolo[4′,3′:9,10][1,6]oxazacycloundecino[8,7,6-hi]indole-8-carboxylic acid] | 160 | 400 | 2e-07 | 1.8e-07 | 8.2e-07 | 1.8e-07 | 3e-07 | –
6 | CCc1c2c(nn1C)CN(C)CCC(F)(F)Cn1c(C(=O)O)c(CCCOc3cccc4cc(F)ccc34)c3ccc(Cl)c-2c31 (racemic) [Example 129, (rac)-4-chloro-3-ethyl-11,11-difluoro-7-{3-[(6-fluoronaphthalen-1-yl)oxy]propyl}-2,14-dimethyl-10,11,12,13,14,15-hexahydro-2H-pyrazolo[3′,4′:8,9][1,6]diazacycloundecino[10,11,1-hi]indole-8-carboxylic acid] | 300 | 740 | 4.5e-07 | 8.3e-07 | 5.2e-06 | 3.3e-07 | 8.9e-07 | –
7 | CCc1c2c(nn1C)CCCN(CC(F)(F)C(F)F)CCn1c(C(=O)O)c(CCCOc3cccc4cc(F)ccc34)c3ccc(Cl)c-2c31 (racemic) [Example 123, (rac)-4-chloro-3-ethyl-7-{3-[(6-fluoro-1-naphthyl)oxy]propyl}-2-methyl-12-(2,2,3,3-tetrafluoropropyl)-10,11,12,13,14,15-hexahydro-2H-pyrazolo[3′,4′:8,9][1,4]diazacycloundecino[10,11,1-hi]indole-8-carboxylic acid] | 470 | 1100 | 2.2e-06 | 7.7e-07 | 3.1e-06 | 6.6e-07 | 1.2e-06 | –
8 | CCc1c2c(nn1C)CN(C(=O)OCCOC)CCCCn1c(C(=O)O)c(CCCOc3cccc4cc(F)ccc34)c3ccc(Cl)c-2c31 [Example 134, (rac)-4-chloro-3-ethyl-7-{3-[(6-fluoronaphthalen-1-yl)oxy]propyl}-14-[(2-methoxyethoxy)carbonyl]-2-methyl-10,11,12,13,14,15-hexahydro-2H-pyrazolo[3′,4′:8,9][1,6]diazacycloundecino[10,11,1-hi]indole-8-carboxylic acid] | 130 | 240 | 2.3e-07 | 3.4e-07 | 2.1e-06 | 1.8e-07 | 3.4e-07 | –
9 | Cc1c2c(nn1C)COCC1CC1Cn1c(C(=O)O)c(CCCOc3cccc4ccccc34)c3ccc(Cl)c-2c31 (single isomer, unassigned) [Example 83, 3-chloro-4,5-dimethyl-14-{3-[(naphthalen-1-yl)oxy]propyl}-5,7,9a,10,10a,11-hexahydro-9H-cyclopropa[3,4]pyrazolo[4′,3′:9,10][1,6]oxazacycloundecino[8,7,6-hi]indole-13-carboxylic acid] | – | – | – | – | 7.4e-06 | – | – | EC50 (SUDHL5 cells [2]; listed as 083): 220 nM; EC50 (SUDHL10 cells [3]; listed as 083): 410 nM; IC50 (SUDHL5 cells [4]; listed as 083): 5.2e-07 M; IC50 (AMO-1 cells; listed as 083): 3.8e-07 M; IC50 (SUDHL5 cells [5]; read-out: Cytotox SUDHL5 [M] (median), IC50, median, listed as 083): 5.8e-07 M; IC50 (SUDHL10 cells [6]; read-out: Cytotox SUDHL10 [M] (median), IC50, median, listed as 083): 5.9e-07 M
